Reference: the supplement of paper PMC10307832

How the values were obtained:
Test in all cases: relative viability (nuclei count vs DMSO), 5 days (fraction); higher = more cells survive
PAC-1 + Olaparib = compound: C=CCc1cccc(/C=N/NC(=O)CN2CCN(Cc3ccccc3)CC2)c1O [PAC-1] + O=C(c1cc(Cc2n[nH]c(=O)c3ccccc23)ccc1F)N1CCN(C(=O)C2CC2)CC1 [Olaparib] (partner 8 µM)
Procedure, shortened: (§1)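 Values are medians from duplicate plates. Each reflects relative viability, defined as the nuclei count of treated wells over that of vehicle wells. Lung cancer cell lines in 1536-well plates were pin-tool dosed one day after seeding with one drug alone or with a fixed anchor-drug dose plus five library-drug doses (not always all listed) in √10 steps, then fixed, stained and imaged at 4× after 5 days.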

BMX-IN-1 + Linsitinib = compound: C=CC(=O)Nc1cc(-n2c(=O)ccc3cnc4ccc(-c5ccc(NS(C)(=O)=O)cc5)cc4c32)ccc1C [BMX-IN-1] + C[C@]1(O)C[C@@H](c2nc(-c3ccc4ccc(-c5ccccc5)nc4c3)c3c(N)nccn32)C1 [Linsitinib] (partner 1 µM)
Procedure, shortened: as §1

Ibrutinib + Crizotinib = compound: C=CC(=O)N1CCC[C@@H](n2nc(-c3ccc(Oc4ccccc4)cc3)c3c(N)ncnc32)C1 [Ibrutinib] + C[C@@H](Oc1cc(-c2cnn(C3CCNCC3)c2)cnc1N)c1c(Cl)ccc(F)c1Cl [Crizotinib] (partner 1 µM)
Procedure, shortened: as §1

Ibrutinib + Vorinostat = compound: C=CC(=O)N1CCC[C@@H](n2nc(-c3ccc(Oc4ccccc4)cc3)c3c(N)ncnc32)C1 [Ibrutinib] + O=C(CCCCCCC(=O)Nc1ccccc1)NO [Vorinostat] (partner 1 µM)
Procedure, shortened: as §1

| Cell Line | relative viability (PAC-1 + Olaparib; first compound 0.02 µM) | relative viability (PAC-1 + Olaparib; first compound 0.06325 µM) | relative viability (PAC-1 + Olaparib; first compound 0.2 µM) | relative viability (PAC-1 + Olaparib; first compound 2 µM) | relative viability (BMX-IN-1 + Linsitinib; first compound 0.02 µM) | relative viability (BMX-IN-1 + Linsitinib; first compound 0.2 µM) | relative viability (BMX-IN-1 + Linsitinib; first compound 0.6325 µM) | relative viability (BMX-IN-1 + Linsitinib; first compound 2 µM) | relative viability (Ibrutinib + Crizotinib; first compound 0.005 µM) | relative viability (Ibrutinib + Crizotinib; first compound 0.01581 µM) | relative viability (Ibrutinib + Crizotinib; first compound 0.05 µM) | relative viability (Ibrutinib + Crizotinib; first compound 0.1581 µM) | relative viability (Ibrutinib + Crizotinib; first compound 0.5 µM) | relative viability (Ibrutinib + Vorinostat; first compound 0.005 µM) | relative viability (Ibrutinib + Vorinostat; first compound 0.01581 µM) | relative viability (Ibrutinib + Vorinostat; first compound 0.05 µM) | relative viability (Ibrutinib + Vorinostat; first compound 0.1581 µM) | relative viability (Ibrutinib + Vorinostat; first compound 0.5 µM) |
| --- | --- | --- | --- | --- | --- | --- | --- | --- | --- | --- | --- | --- | --- | --- | --- | --- | --- | --- |
| EBC-1 | 0.551 | 0.713 | 0.713 | 0.649 | 1.08 | 0.802 | 0.983 | 1.04 | 0.199 | 0.21 | 0.205 | 0.188 | 0.162 |  |  |  |  |  |
| EKVX | 0.987 | 0.847 | 0.751 | 0.764 | 1.14 | 1.17 | 1.13 | 1.02 | 0.995 | 0.743 | 1.05 | 0.964 | 0.562 | 0.811 | 0.549 | 0.633 | 0.657 | 0.365 |
| EMC-BAC-2 | 0.523 | 0.481 | 0.488 | 0.504 | 0.916 | 0.782 | 0.84 | 0.802 | 0.79 | 0.679 | 0.731 | 0.813 | 0.726 | 0.412 | 0.525 |  |  | 0.453 |
| EPLC-272H | 0.763 | 0.817 | 0.606 | 0.567 | 1.19 | 1.35 | 1.42 | 1.01 |  | 0.806 | 0.809 | 1.06 | 0.522 | 0.248 | 0.4 | 0.31 | 0.597 | 0.401 |
| H3255 | 0.64 | 0.579 | 0.536 | 0.515 | 1.07 | 1.01 | 0.965 | 0.912 | 0.873 | 0.81 | 0.729 | 0.874 | 0.429 | 0.889 | 0.725 |  | 0.764 | 0.163 |
| HARA | 0.769 | 0.65 | 0.813 | 1.16 | 1.2 | 1.21 | 0.851 | 0.886 | 1.16 | 0.913 | 1.03 | 1.08 | 0.883 | 0.606 | 0.482 | 0.663 | 0.64 | 0.553 |
| HCC-15 | 0.644 | 0.775 | 0.69 | 0.771 | 0.918 | 0.984 | 0.899 | 0.821 | 0.889 | 0.785 | 0.873 | 0.828 | 0.837 | 0.911 | 0.873 | 0.826 | 0.897 | 0.796 |
| HCC-44 | 1.05 | 0.906 | 0.963 | 0.986 | 0.804 | 0.735 | 0.702 | 0.642 | 0.813 | 0.782 | 0.801 | 0.866 | 0.743 | 1.21 |  | 1.2 | 1.2 | 1.15 |
| HCC-78 | 0.8 | 0.893 | 0.874 | 0.827 | 0.572 | 0.571 | 0.582 | 0.643 | 0.347 | 0.328 | 0.289 | 0.335 | 0.247 |  | 0.403 | 0.405 | 0.446 | 0.388 |
